Laboratory results published in PubChem BioAssay AID270 (DTP/NCI, 2004).
Where “and” joins values, the source holds several entries; their conditions need not be identical. Identical values can stand only once. Results filed as inconclusive are left out.

Tested on: BDF1 mice, s.c. Lewis lung carcinoma, T/C %
Experiment: NCI In Vivo Anticancer Drug Screen. Data for tumor model Lewis Lung Carcinoma (subcutaneous) in B6D2F1 (BDF1) mice
Method: The antitumor activity of compounds was measured in mice bearing transplantable tumors. Survival or tumor size were measured and the results are expressed as the measurement made in the treated group (T) divided by the measurement made in the vehicle treated control group (C). The tumor model used in this assay is Lewis Lung Carcinoma (subcutaneous) in B6D2F1 (BDF1) mice

[1] = endpoint: median survival time, dose: 20.0 mg/kg/injection, schedule: Q01DX001 (ip), vehicle: Klucel (hydroxypropylcellulose) (HPC), higher = longer survival
[2] = endpoint: mean tumor weight, dose: 25.0 mg/kg/injection, schedule: Q01DX011 (ip), vehicle: saline, higher = larger tumour
[3] = endpoint: mean tumor weight, dose: 50.0 mg/kg/injection, schedule: Q01DX011 (ip), vehicle: saline, higher = larger tumour
[4] = endpoint: mean tumor weight, dose: 100.0 mg/kg/injection, schedule: Q01DX011 (ip), vehicle: saline, higher = larger tumour

Q: Which T/C (endpoint: median survival time, dose: 10.0 mg/kg/injection, schedule: Q01DX001 (ip), vehicle: Klucel (hydroxypropylcellulose) (HPC), higher = longer survival) does the source give for `O=NN(CCCl)C(=O)NC1CC2CCC1C2` (stereo unspecified) here?
A: 102 % of control and 108 % of control

Q: What about the T/C [1] of the same molecule?
A: 99 % of control and 102 % of control

Q: What about the T/C (endpoint: median survival time, dose: 40.0 mg/kg/injection, schedule: Q01DX001 (ip), vehicle: Klucel (hydroxypropylcellulose) (HPC), higher = longer survival) of the same molecule?
A: 106 % of control

Q: And the T/C (endpoint: median survival time, dose: 80.0 mg/kg/injection, schedule: Q01DX001 (ip), vehicle: Klucel (hydroxypropylcellulose) (HPC), higher = longer survival)?
A: 260 % of control

Q: What about the T/C (endpoint: median survival time, dose: 160.0 mg/kg/injection, schedule: Q01DX001 (ip), vehicle: Klucel (hydroxypropylcellulose) (HPC), higher = longer survival) of the same molecule?
A: 117 % of control

Q: What does the source list for `CC(=O)O[C@H]1C(=O)[C@@]2(C)[C@H]([C@H](OC(=O)c3ccccc3)[C@]3(O)C[C@H](OC(=O)[C@H](O)[C@@H](NC(=O)c4ccccc4)c4ccccc4)C(C)=C1C3(C)C)[C@]1(OC(C)=O)CO[C@@H]1C[C@@H]2O`?
A: T/C (endpoint: median survival time, dose: 4.0 mg/kg/injection, schedule: Q01DX009 (ip), vehicle: Klucel (hydroxypropylcellulose) (HPC), higher = longer survival): 112 % of control; T/C (endpoint: median survival time, dose: 6.0 mg/kg/injection, schedule: Q01DX009 (ip), vehicle: Klucel (hydroxypropylcellulose) (HPC), higher = longer survival): 109 % of control; T/C (endpoint: median survival time, dose: 11.0 mg/kg/injection, schedule: Q04DX003 (ip), vehicle: Klucel (hydroxypropylcellulose) (HPC), higher = longer survival): 94 % of control; T/C (endpoint: median survival time, dose: 13.0 mg/kg/injection, schedule: Q01DX001 (ip), vehicle: Klucel (hydroxypropylcellulose) (HPC), higher = longer survival): 107 % of control; T/C (endpoint: median survival time, dose: 16.0 mg/kg/injection, schedule: Q04DX003 (ip), vehicle: Klucel (hydroxypropylcellulose) (HPC), higher = longer survival): 109 % of control; T/C [1]: 99 % of control; T/C (endpoint: median survival time, dose: 30.0 mg/kg/injection, schedule: Q01DX001 (ip), vehicle: Klucel (hydroxypropylcellulose) (HPC), higher = longer survival): 101 % of control

Q: With `COc1ccc2c(c1)CC[C@@H]1[C@@H]2CC[C@@]2(C)[C@H]1CC[C@@]2(O)C(F)=C(F)F` as the molecule, how does the T/C (endpoint: median survival time, dose: 12.5 mg/kg/injection, schedule: Q01DX009 (sc), vehicle: steriod suspending solution, higher = longer survival) read?
A: 93 % of control

Q: `OC(CBr)C(O)C(O)C(O)CBr` (stereo unspecified) was tested. Which T/C (endpoint: mean tumor weight (est.), dose: 75.0 mg/kg/injection, schedule: Q01DX009 (ip), vehicle: Klucel (hydroxypropylcellulose) (HPC), higher = larger tumour) did it give?
A: 107 % of control

Q: What about the T/C (endpoint: mean tumor weight (est.), dose: 150.0 mg/kg/injection, schedule: Q01DX009 (ip), vehicle: Klucel (hydroxypropylcellulose) (HPC), higher = larger tumour) of the same molecule?
A: 92 % of control

Q: What about the T/C (endpoint: mean tumor weight (est.), dose: 300.0 mg/kg/injection, schedule: Q01DX009 (ip), vehicle: Klucel (hydroxypropylcellulose) (HPC), higher = larger tumour) of the same molecule?
A: 63 % of control

Q: What about the T/C [2] of the same molecule?
A: 103 % of control

Q: What about the T/C [3] of the same molecule?
A: 82 % of control

Q: And the T/C [4]?
A: 46 % of control and 51 % of control

Q: And the T/C (endpoint: mean tumor weight, dose: 400.0 mg/kg/injection, schedule: Q01DX011 (ip), vehicle: saline, higher = larger tumour)?
A: 118 % of control

Q: What about the T/C (endpoint: median survival time, dose: 100.0 mg/kg/injection, schedule: Q01DX009 (ip), vehicle: saline, higher = longer survival) of the same molecule?
A: 107 % of control

Q: And the T/C (endpoint: median survival time, dose: 150.0 mg/kg/injection, schedule: Q01DX009 (ip), vehicle: Klucel (hydroxypropylcellulose) (HPC), higher = longer survival)?
A: 113 % of control

Q: What about the T/C (endpoint: median survival time, dose: 200.0 mg/kg/injection, schedule: Q01DX009 (ip), vehicle: saline, higher = longer survival) of the same molecule?
A: 102 % of control

Q: And the T/C (endpoint: median survival time, dose: 400.0 mg/kg/injection, schedule: Q01DX009 (ip), vehicle: saline, higher = longer survival)?
A: 107 % of control

Q: With `CC(=O)NCCSC(=O)C(=O)SCCNC(C)=O` as the molecule, how does the T/C [2] read?
A: 95 % of control

Q: And the T/C [3]?
A: 106 % of control

Q: What about the T/C [4] of the same molecule?
A: 67 % of control

Q: Which results are given for `CN(C)CCOC(=O)COc1ccc(Cl)cc1`?
A: T/C (endpoint: median survival time, dose: 200.0 mg/kg/injection, schedule: Q01DX005 (ip), vehicle: saline, higher = longer survival): 103 % of control and 116 % of control; T/C (endpoint: median survival time, dose: 300.0 mg/kg/injection, schedule: Q01DX005 (ip), vehicle: saline, higher = longer survival): 119 % of control

Q: With `CC[C@@H]1O[C@@H]([C@@H]2CC[C@](O)([C@]3(C)CC[C@@H]([C@@H](C)[C@@]4(O)CC[C@H](C)[C@@H](C[C@@]5(O)O[C@@H]([C@@H](C)[C@H](O)C[C@H]6CC[C@H](C)[C@@H]([C@@H](C)C(=O)O)O6)CC[C@@H]5C)O4)O3)O2)CC[C@@]1(C)O` as the molecule, how does the T/C (endpoint: median survival time, dose: 0.12 mg/kg/injection, schedule: Q01DX009 (ip), vehicle: saline, higher = longer survival) read?
A: 106 % of control

Q: And the T/C (endpoint: median survival time, dose: 0.25 mg/kg/injection, schedule: Q01DX009 (ip), vehicle: saline, higher = longer survival)?
A: 110 % of control

Q: What about the T/C (endpoint: median survival time, dose: 0.5 mg/kg/injection, schedule: Q01DX009 (ip), vehicle: saline, higher = longer survival) of the same molecule?
A: 106 % of control

Q: And the T/C (endpoint: median survival time, dose: 1.0 mg/kg/injection, schedule: Q01DX009 (ip), vehicle: saline, higher = longer survival)?
A: 97 % of control

Q: What does the source list for `O=C(Nc1ccc(C2=NCCN2)cc1)c1ccc(C(=O)Nc2ccc(C3=NCCN3)cc2)c([N+](=O)[O-])c1`?
A: T/C (endpoint: mean tumor weight, dose: 4.0 mg/kg/injection, schedule: Q01DX011 (ip), vehicle: saline, higher = larger tumour): 122 % of control; T/C (endpoint: mean tumor weight, dose: 8.0 mg/kg/injection, schedule: Q01DX011 (ip), vehicle: saline, higher = larger tumour): 85 % of control; T/C (endpoint: mean tumor weight, dose: 16.0 mg/kg/injection, schedule: Q01DX011 (ip), vehicle: saline, higher = larger tumour): 26 % of control
